Several values for one entry are separate records, joined by “and”; a condition that tells them apart may be missing. Equal values may be shown once. Entries after “also recorded” stand apart in the source; their conditions may differ. Values belong to the molecule of their own block, whether it stands above or below them. Where a SMILES comes first, the peptide text is derived from it. Bridges are numbered along the chain shown (N, C = ends). [ ]: non-standard residue; d: D form. hArg = N=C(N)NCCCC[C@H](N)C(=O)O; Mpa = O=C(O)CCS
Columns and labels:
BTK enzyme = BTK enzyme (Homo sapiens, UniProt Q06187); conditions: healthy volunteers; doses which provide 100% occupancy of the BTK enzyme; cited from earlier work
Chain of BTK enzyme (Q06187 whole entry): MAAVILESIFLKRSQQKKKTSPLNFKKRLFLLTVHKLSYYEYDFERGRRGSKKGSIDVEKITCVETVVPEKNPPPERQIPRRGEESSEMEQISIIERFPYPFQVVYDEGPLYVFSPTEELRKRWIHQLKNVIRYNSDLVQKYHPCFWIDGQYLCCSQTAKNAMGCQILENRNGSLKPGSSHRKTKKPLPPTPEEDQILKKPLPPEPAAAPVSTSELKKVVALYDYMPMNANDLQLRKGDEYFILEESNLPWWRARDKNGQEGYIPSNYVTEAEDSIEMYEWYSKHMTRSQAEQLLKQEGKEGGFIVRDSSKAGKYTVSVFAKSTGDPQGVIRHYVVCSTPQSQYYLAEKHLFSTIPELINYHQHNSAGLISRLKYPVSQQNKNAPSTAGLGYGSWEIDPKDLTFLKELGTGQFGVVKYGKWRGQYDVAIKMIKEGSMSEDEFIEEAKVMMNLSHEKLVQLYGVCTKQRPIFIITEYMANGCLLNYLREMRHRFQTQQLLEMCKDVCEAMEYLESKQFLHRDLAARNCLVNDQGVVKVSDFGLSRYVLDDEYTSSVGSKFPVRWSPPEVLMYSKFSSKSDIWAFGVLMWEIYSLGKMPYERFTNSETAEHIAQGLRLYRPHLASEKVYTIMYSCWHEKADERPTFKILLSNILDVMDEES

washed platelets [1] = assay: Light transmission aggregometry of washed platelets stimulated with serum from patients with VITT; type: cell-based, human
Procedure: Washed platelets were prepared from citrated whole blood as described in Nicolson et al., Low-dose BTK inhibitors selectively block platelet activation by CLEC-2, Haematologica 106(1):208-19 (2021). Briefly; citrated blood was taken from healthy, drug-free volunteers and mixed (1:10, v/v) with acid citrate dextrose and centrifuged (200×g, 20 minutes, RT) to produce platelet rich plasma. Platelet rich plasma was then centrifuged (1000×g, 10 minutes, RT) in the presence of 0.2 μg/mL prostacyclin. The platelet pellet was resuspended in modified-Tyrode's-HEPES buffer, prepared as described in Nicolson et al., acid citrate dextrose and 0.2 μg/mL prostacyclin and centrifuged (1000×g, 10 minutes, RT). Platelet pellet was resuspended in modified-Tyrode's-HEPES buffer to a concentration of 2×10^8/mL and allowed to rest for 30 minutes prior to use.
Aggregation was measured in washed platelets (2×10^8/mL) under stirring conditions (1200 rpm) at 37° C. using a light transmission aggregometer (Model 700, ChronoLog) for 20 minutes following stimulation with serum (1:15, v/v). Washed platelets were pre-incubated with IV.3 F(ab) for 5 minutes or with inhibitors for 10 minutes prior to stimulation with serum. Modified-Tyrode's-HEPES buffer or dimethyl sulfoxide (DMSO) was used as vehicle.

washed platelets [2] = assay: Light transmission aggregometry, aggregation to collagen; type: cell-based, human; conditions: 3 μg/mL collagen; results not shown
Procedure: […] Modified-Tyrode's-HEPES buffer or dimethyl sulfoxide (DMSO) was used as vehicle.
We tested if the Btk inhibitor rilzabrutinib (rilzabrutinib powder prepared in DMSO (final 0.02% DMSO) to achieve a concentration of 0.5 μM) could prevent platelet aggregation in patient sera.

251-kinase panel = 251-kinase panel selectivity; type: biochemical; conditions: 1 μM
[3] = Pharmacokinetics in humans after oral administration; type: in vivo, human
platelets [4] = assay: Normal platelet function in vitro; type: cell-based
[5] = Bleeding in thrombocytopenic patients; type: in vivo, human
[6] = in comparison to first and second generation BTKi; cited from earlier work
[7] = Phase 2 trial; cited from earlier work
platelets [8] = assay: Heparin Induced Platelet Activation (HIPA) assay (HITAlert kit); type: cell-based, human
From the text: See, e.g., Greinacher et al., Thrombotic thrombocytopenia after ChAdOx1 nCov-19 vaccination, N Engl J Med, doi:10.1056/NEJMoa2104840 (2021); Schlutz et al., Thrombosis and thrombocytopenia after ChAdox1 nCoV-19 vaccination, N Engl J Med, doi:10.1056/NEJMoa2104882 (2021). Cross-sectional brain imaging verified the presence of cerebral venous sinus thrombosis (CVST) and intracerebral haemorrhage in three patients, and ischemic stroke caused by internal carotid artery thrombus in one patient.

platelets via FcγRIIA = conditions: both low and high concentrations of heparin; cited from earlier work
[9] = human, in vivo; cited from earlier work
[10] = HITAlert at presentation, serum of the individual VITT patient, normal range ≤ 8%

Molecule: C=CC(=O)Nc1cccc(Nc2nc(Nc3ccc(OCCOC)cc3)ncc2F)c1 [CC-292, spebrutinib]
tolerability (BTK enzyme): well tolerated

number of kinases with >90% inhibition (251-kinase panel): 6 kinases
absorption [3]: rapidly absorbed
half-life ([3]; human, in vivo): 3 to 4 h
impact on normal platelet function (platelets [4]): no impact
association with bleeding [5]: has not been associated with bleeding
Molecule: CC(C)(C=C(C#N)C(=O)N1CCC[C@@H](n2nc(-c3ccc(Oc4ccccc4)cc3F)c3c(N)ncnc32)C1)N1CCN(C2COC2)CC1 [Compound (I), (R)-2-[3-[4-amino-3-(2-fluoro-4-phenoxy-phenyl)pyrazolo[3,4-d]pyrimidin-1-yl]piperidine-1-carbonyl]-4-methyl-4-[4-(oxetan-3-yl)piperazin-1-yl]pent-2-enenitrile]
platelet aggregation induced by serum from patients with VITT (washed platelets [1]; rilzabrutinib 0.5 μM, 10 minutes pre-incubation, washed platelets 2×10^8/mL, serum 1:15 v/v, n=7): prevented platelet aggregation; also recorded: blocks platelet aggregation
aggregation to collagen (washed platelets [2]): fully inhibited
cross-reactivity with other molecules [6]: minimal cross-reactivity

Molecule: N=C(N)c1ccc2cc(OC(=O)c3ccc(N=C(N)N)cc3)ccc2c1 [FUT-175]
effect on aggregation to patient sera (complement inhibitors) (washed platelets [1]; data not shown): minor effects

Molecule: CC[C@H](C)[C@H](N)C(=O)N[C@H]1CSSC[C@@H](C(=O)N[C@H](C(N)=O)[C@@H](C)O)NC(=O)[C@H](CCCN=C(N)N)NC(=O)[C@H](Cc2cnc[nH]2)NC(=O)[C@H](Cc2cnc[nH]2)NC(=O)CNC(=O)[C@H](Cc2c[nH]c3ccccc23)NC(=O)[C@H](CC(=O)O)NC(=O)[C@H](CCC(N)=O)NC(=O)[C@H](C(C)C)NC(=O)[C@H](C(C)C)NC1=O [compstatin]
effect on aggregation to patient sera (complement inhibitors) (washed platelets [1]; data not shown): minor effects

Molecule: N=C(N)NCCCC[C@@H]1NC(=O)CCSSC[C@@H](C(N)=O)NC(=O)[C@@H]2CCCN2C(=O)[C@H](Cc2c[nH]c3ccccc23)NC(=O)[C@H](CC(=O)O)NC(=O)CNC1=O [eptifibatide] ([Mpa][hArg]GDWPC-NH2; disulfide 1-7)
response (aggregation) to patient sera (washed platelets [1]; eptifibatide 9 μM, data not shown): inhibited

Molecule: C=CC(=O)N1CCC(CNc2ncnc(N)c2-c2ccc(Oc3ccccc3)cc2)CC1 [evobrutinib]
efficacy for multiple sclerosis [7]: demonstrated efficacy

Molecule: heparin
aggregation to VITT patient sera, high heparin (washed platelets [1]; high heparin concentration (100 U/mL)): blocked aggregation
aggregation to VITT patient sera, low heparin (washed platelets [1]; low (0.2 U/mL) concentration of heparin, 7 patients): prevented (5 of 7 patients) or delayed (2 of 7 patients)
Platelet activation with serum and excess heparin (platelets [8]; [10]): 0.64% and 3.68% and 1.43% and 4.38%
Platelet activation with serum and heparin (platelets [8]; [10]): 18.53% and 18% and 36.5% and 22.63%
platelet activation by patient sera, high concentration of heparin (platelets [8]; sera of four patients tested): blocked
platelet activation by patient sera, low concentration of heparin (platelets [8]; sera of four patients tested): reduced
platelet activation by immune complexes (platelets via FcγRIIA): blocked
deleterious effect in 1 patient with VITT [9]: without deleterious effect

B1: PF4: platelet factor 4 (protein, UniProt P02776 32-101, looked up)
Platelet factor 4: EAEEDGDLQCLCVKTTSQVRPRHITSLEVIKAGPHCPTAQLIATLKNGRKICLDLQAPLYKKIIKKLLES
enhancement of partial aggregation to patient 2 serum (washed platelets [1]; 10 μg/mL PF4, data not shown): No enhancement

Reference: patent US20240207277A1, “Methods For Treating Drug and Vaccine Induced Immune Thrombocytopenia by Administering Specific Compounds” (Principia Biopharma Inc., priority 2021, published 2024)
